Measured values reported in patent US12054463B2, “Radiolabeled microtubule imaging compounds and uses thereof” (The Trustees of Columbia University in the City of New York, priority 2017, dated 2024).
“Also recorded” adds a separate entry of the source.

How the values were obtained:
5-HT1A = 5-HT1A (Homo sapiens, UniProt P08908); assay: Affinity to brain targets (panel); type: binding
5-HT1B = 5-HT1B (Homo sapiens, UniProt P28222); assay: Affinity to brain targets (panel); type: binding
5-HT1D = 5-HT1D (Homo sapiens, UniProt P28221); assay: Affinity to brain targets (panel); type: binding
Sequence of 5-HT1D (P28221 whole entry, species assumed): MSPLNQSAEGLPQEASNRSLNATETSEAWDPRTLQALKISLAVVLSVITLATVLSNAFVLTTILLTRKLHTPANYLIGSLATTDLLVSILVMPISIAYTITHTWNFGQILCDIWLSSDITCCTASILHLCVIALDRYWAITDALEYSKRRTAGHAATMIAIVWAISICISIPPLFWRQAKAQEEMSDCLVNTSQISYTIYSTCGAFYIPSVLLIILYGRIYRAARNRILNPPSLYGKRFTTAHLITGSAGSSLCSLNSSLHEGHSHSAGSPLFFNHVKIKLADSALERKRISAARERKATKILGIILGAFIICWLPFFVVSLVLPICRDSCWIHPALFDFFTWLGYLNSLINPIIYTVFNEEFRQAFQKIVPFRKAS

5-HT1E = 5-HT1E (Homo sapiens, UniProt P28566); assay: Affinity to brain targets (panel); type: binding
Sequence of 5-HT1E (P28566 whole entry, species assumed): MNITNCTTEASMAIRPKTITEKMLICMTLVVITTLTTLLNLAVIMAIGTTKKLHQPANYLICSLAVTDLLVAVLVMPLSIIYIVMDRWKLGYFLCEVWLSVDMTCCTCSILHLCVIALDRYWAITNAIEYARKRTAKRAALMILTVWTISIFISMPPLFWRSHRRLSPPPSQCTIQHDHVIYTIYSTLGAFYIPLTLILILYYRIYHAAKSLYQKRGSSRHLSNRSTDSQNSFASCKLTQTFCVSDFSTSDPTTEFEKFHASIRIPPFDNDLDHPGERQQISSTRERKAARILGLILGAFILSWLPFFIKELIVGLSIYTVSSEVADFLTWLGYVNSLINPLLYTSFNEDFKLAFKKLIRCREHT

5-HT2A = 5-HT2A (Homo sapiens, UniProt P28223); assay: Affinity to brain targets (panel); type: binding
5-HT2B = 5-HT2B (Homo sapiens, UniProt P41595); assay: Affinity to brain targets (panel); type: binding
5-HT2C = 5-HT2C (Homo sapiens, UniProt P28335); assay: Affinity to brain targets (panel); type: binding
5-HT3 = 5-HT3 (Homo sapiens, UniProt P46098); assay: Affinity to brain targets (panel); type: binding
5-HT7 = 5-HT7 (Homo sapiens, UniProt P34969); assay: Affinity to brain targets (panel); type: binding
Adenosine = assay: Affinity to brain targets (panel); type: binding; conditions: Adenosine (A)
α1A-1C = assay: Affinity to brain targets (panel); type: binding
α2A = α2A (Homo sapiens, UniProt P08913); assay: Affinity to brain targets (panel); type: binding
Sequence of α2A (P08913 whole entry): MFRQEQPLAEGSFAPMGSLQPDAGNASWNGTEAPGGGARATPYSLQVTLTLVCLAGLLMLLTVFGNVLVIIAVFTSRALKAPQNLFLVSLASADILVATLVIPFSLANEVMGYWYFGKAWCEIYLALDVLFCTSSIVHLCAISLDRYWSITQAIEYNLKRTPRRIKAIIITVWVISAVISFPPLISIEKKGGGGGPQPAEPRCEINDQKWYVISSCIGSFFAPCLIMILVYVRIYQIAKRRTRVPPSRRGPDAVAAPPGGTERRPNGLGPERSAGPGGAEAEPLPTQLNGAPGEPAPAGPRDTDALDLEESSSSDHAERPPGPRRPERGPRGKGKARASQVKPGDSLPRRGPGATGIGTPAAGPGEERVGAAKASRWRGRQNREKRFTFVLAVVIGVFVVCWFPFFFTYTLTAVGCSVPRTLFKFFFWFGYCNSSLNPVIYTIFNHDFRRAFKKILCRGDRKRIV

α2B = α2B (Homo sapiens, UniProt P18089); assay: Affinity to brain targets (panel); type: binding
Sequence of α2B (P18089 whole entry): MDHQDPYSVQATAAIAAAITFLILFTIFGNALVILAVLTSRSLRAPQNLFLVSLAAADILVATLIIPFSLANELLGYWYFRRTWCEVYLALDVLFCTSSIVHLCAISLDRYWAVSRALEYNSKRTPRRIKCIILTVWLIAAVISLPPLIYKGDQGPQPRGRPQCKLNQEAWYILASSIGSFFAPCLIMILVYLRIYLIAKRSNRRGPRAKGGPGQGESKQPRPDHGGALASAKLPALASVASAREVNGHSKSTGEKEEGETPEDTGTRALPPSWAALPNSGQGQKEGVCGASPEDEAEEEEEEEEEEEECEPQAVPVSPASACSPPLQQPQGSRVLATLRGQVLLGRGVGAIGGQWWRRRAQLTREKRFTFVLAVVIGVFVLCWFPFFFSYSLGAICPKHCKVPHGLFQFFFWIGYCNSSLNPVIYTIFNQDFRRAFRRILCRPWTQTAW

α2C = α2C (Homo sapiens, UniProt P18825); assay: Affinity to brain targets (panel); type: binding
Sequence of α2C (P18825 whole entry): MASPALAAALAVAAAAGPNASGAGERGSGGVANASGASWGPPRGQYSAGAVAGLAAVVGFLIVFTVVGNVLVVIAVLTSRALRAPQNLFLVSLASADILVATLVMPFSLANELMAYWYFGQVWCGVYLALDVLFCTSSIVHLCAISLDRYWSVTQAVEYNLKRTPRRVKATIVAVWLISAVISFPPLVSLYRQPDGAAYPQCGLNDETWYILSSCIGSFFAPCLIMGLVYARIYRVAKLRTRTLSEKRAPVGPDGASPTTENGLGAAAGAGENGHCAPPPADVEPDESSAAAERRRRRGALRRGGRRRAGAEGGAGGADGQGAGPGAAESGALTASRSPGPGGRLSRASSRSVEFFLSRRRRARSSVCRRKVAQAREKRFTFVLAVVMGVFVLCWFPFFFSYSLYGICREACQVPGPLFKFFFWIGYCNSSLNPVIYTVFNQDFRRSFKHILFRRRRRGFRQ

β1 = β1 (Homo sapiens, UniProt P08588); assay: Affinity to brain targets (panel); type: binding
Sequence of β1 (P08588 whole entry): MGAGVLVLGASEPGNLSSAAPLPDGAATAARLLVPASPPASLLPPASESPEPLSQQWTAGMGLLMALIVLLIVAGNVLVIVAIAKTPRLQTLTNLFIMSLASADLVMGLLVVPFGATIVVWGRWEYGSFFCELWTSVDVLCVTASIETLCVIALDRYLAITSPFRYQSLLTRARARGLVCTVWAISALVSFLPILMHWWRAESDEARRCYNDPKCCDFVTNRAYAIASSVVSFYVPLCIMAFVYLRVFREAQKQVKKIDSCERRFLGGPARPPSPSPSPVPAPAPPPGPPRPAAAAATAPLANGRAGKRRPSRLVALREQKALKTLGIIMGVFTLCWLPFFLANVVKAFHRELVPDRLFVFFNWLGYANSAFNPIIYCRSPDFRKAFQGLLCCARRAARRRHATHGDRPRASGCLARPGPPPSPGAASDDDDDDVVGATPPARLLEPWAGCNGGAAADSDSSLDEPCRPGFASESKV

β2 = β2 (Homo sapiens, UniProt P07550); assay: Affinity to brain targets (panel); type: binding
Sequence of β2 (P07550 whole entry): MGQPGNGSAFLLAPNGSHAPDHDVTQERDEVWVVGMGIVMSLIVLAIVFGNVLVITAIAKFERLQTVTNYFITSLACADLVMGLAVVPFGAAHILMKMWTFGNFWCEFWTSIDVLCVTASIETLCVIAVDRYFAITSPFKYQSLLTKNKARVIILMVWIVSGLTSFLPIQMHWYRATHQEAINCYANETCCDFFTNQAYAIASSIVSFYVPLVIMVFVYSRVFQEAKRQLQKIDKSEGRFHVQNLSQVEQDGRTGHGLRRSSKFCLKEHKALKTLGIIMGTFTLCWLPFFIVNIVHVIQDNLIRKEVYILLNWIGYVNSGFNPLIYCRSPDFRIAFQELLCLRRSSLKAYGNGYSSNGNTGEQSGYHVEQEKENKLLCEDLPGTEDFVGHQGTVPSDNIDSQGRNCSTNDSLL

β3 = β3 (Homo sapiens, UniProt P13945); assay: Affinity to brain targets (panel); type: binding
BZP = assay: Affinity to brain targets (panel); type: binding; conditions: BZP: benzodiazepine
Ca++ channel = assay: Affinity to brain targets (panel); type: binding
AMPA = assay: Affinity to brain targets (panel); type: binding
NK = assay: Affinity to brain targets (panel); type: binding; conditions: NK: neurokinin
Sigma1 = Sigma1 (Homo sapiens, UniProt Q99720); assay: Affinity to brain targets (panel); type: binding
Sequence of Sigma1 (Q99720 whole entry): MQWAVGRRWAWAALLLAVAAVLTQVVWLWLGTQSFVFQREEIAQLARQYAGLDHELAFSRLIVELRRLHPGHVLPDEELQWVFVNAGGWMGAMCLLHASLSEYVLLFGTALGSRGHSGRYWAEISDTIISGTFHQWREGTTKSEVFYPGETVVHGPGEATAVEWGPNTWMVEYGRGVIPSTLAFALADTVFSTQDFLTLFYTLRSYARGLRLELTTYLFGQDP

Na+ Channel = assay: Affinity to brain targets (panel); type: binding
CB1 = CB1 (Homo sapiens, UniProt P21554); assay: Affinity to brain targets (panel); type: binding; conditions: CB1: cannabinoid
mGluR = assay: Affinity to brain targets (panel); type: binding; conditions: mGluR (mGluRs): metabotropic glutamate receptors
CB2 = CB2 (Homo sapiens, UniProt P34972); assay: Affinity to brain targets (panel); type: binding; conditions: CB2: cannabinoid
Sequence of CB2 (P34972 whole entry, species assumed): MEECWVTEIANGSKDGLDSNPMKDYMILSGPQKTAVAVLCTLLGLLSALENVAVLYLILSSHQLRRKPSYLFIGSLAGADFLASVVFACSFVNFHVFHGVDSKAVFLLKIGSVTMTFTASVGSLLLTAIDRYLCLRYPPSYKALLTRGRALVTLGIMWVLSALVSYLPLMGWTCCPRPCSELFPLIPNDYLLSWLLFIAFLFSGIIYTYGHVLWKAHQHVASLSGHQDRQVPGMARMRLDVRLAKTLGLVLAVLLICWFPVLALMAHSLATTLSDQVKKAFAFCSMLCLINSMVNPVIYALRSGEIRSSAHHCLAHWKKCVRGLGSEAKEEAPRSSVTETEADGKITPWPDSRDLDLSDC

D1, D2 = assay: Affinity to brain targets (panel); type: binding; conditions: D1, D2: dopamine
D3 = D3 (Homo sapiens, UniProt P35462); assay: Affinity to brain targets (panel); type: binding; conditions: D3: dopamine
Sequence of D3 (P35462 whole entry): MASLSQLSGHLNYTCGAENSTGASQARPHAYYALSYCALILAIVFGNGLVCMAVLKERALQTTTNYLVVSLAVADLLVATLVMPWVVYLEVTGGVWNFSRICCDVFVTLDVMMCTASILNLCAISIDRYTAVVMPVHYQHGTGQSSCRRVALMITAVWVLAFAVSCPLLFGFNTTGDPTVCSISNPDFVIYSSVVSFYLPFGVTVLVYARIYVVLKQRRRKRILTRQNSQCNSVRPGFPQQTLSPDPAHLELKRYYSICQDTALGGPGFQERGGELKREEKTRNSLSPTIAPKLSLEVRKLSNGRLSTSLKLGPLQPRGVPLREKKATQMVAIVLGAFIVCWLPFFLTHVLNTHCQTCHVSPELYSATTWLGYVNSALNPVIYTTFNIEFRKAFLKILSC

D4 = D4 (Homo sapiens, UniProt P21917); assay: Affinity to brain targets (panel); type: binding; conditions: D4: dopamine
Sequence of D4 (P21917 whole entry): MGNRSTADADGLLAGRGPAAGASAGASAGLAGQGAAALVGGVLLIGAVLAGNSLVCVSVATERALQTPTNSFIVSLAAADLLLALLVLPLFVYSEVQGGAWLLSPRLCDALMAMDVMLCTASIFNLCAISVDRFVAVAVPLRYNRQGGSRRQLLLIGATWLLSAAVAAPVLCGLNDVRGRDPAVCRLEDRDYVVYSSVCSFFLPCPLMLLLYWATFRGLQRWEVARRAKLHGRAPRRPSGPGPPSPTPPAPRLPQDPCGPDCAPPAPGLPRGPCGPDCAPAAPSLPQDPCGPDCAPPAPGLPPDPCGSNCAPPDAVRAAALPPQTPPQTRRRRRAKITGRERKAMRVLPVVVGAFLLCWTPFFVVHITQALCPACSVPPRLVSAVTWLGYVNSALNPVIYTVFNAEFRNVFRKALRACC

KA = assay: Affinity to brain targets (panel); type: binding; conditions: KA (KAR): Kainate
D5 = D5 (Homo sapiens, UniProt P21918); assay: Affinity to brain targets (panel); type: binding; conditions: D5: dopamine
Sequence of D5 (P21918 whole entry): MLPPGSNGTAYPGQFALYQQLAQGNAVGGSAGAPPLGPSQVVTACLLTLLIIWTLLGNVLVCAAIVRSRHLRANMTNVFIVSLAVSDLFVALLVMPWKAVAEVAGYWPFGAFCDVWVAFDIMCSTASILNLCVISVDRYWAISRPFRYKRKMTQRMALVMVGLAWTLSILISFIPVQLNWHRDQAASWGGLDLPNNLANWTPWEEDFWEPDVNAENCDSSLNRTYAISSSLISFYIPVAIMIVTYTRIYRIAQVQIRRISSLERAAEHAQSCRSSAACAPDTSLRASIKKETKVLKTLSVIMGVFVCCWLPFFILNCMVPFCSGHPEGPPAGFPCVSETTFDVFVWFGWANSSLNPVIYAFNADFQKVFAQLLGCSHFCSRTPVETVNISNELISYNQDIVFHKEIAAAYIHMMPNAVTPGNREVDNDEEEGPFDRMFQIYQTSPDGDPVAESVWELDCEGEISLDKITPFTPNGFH

EP = assay: Affinity to brain targets (panel); type: binding; conditions: EP: prostanoid receptors
GABA = assay: Affinity to brain targets (panel); type: binding
M = assay: Affinity to brain targets (panel); type: binding; conditions: M: muscarinic
H3, H4 = assay: Affinity to brain targets (panel); type: binding; conditions: H3, H4: histamine
H2 = H2 (Homo sapiens, UniProt P25021); assay: Affinity to brain targets (panel); type: binding; conditions: H2: histamine
MOR = MOR (Homo sapiens, UniProt P35372); assay: Affinity to brain targets (panel); type: binding; conditions: MOR: mu opioid receptor
NMDA = assay: Affinity to brain targets (panel); type: binding
I = assay: Affinity to brain targets (panel); type: binding
VMAT = assay: Affinity to brain targets (panel); type: binding; conditions: VMAT (VMAT 1,2): vesicular monoamine transporter
NT = assay: Affinity to brain targets (panel); type: binding; conditions: NT: neurotrophin
PKC = assay: Affinity to brain targets (panel); type: binding; conditions: PKC: Protein kinase C
V1-2 = assay: Affinity to brain targets (panel); type: binding; conditions: V1-2: vasopressin
variety of brain targets = assay: Affinity for a variety of brain targets; type: binding; conditions: variety of brain targets (Table 1), except H4R
panel of kinases = conditions: cited from earlier work
microtubules (MTs) = conditions: reference 9; cited from earlier work
[1] = log Poct/wat by shake flask method; type: physicochemical; conditions: octanol/water
Experimental: (§1) The radiochemical synthesis of [^11C] MPC-6827 was optimized and automated on aGE-FX2MeI/FX2M radiochemistry module by alkylating the desmethyl-MPC6827 precursor (6) with [^11C] MeI in DMF using NaOH. [^11C] MPC-6827 was produced with a radiochemical yield (RCY) of 40%, in >99% radiochemical purity and a specific activity of 2+0.5 Ci/μmol (decay corrected to end of synthesis (EOS)). The radioligand was stable in 5% ethanol-saline formulation for 4 h and the log Poct/wat was estimated as 3.8 by shake flask method.

[2] = Stability in 5% ethanol-saline formulation; type: physicochemical
Experimental: as §1

brain MT [3] = assay: Biodistribution in white male mice; type: in vivo
Experimental: (§2) Biodistribution of [^11C] […] The time-activity curves were expressed in g/mL normalized to the injected dose corrected for weight, to obtain standardized uptake values (SUVs). The brain SUV of [^11C] […] The heart, blood and muscles also show binding to [^11C] MPC-6827 and are consistent with known distribution of MTs in these organs. […] The lungs show higher uptake up to 30 minutes, followed by washout. 70% specific binding in brain was established at 30 minutes prior to the injection of radiotracer with 5 mg/kg MPC-6827 (FIG. 2) in mice.

rat brain = assay: MicroPET in rat; type: in vivo
brain MT [4] = assay: MicroPET in athymic nude male mice; type: in vivo
Experimental: as §2
Radioligand binding in thyroid gland, is also displaced during the blocking experiments.^21-23

[5] = test system: glioblastoma (GBM) U251 cells; assay: In vitro cell uptake; type: cell-based
glioblastoma PDX cells = assay: In vitro cell uptake; type: cell-based
[6] = test system: prostate cancer (PC3) cells; assay: In vitro cell uptake; type: cell-based
MDA-MB-231 cells = assay: Cell uptake and blocking; type: cell-based
[7] = test system: amyloid overexpressing 5×FAD-AD mice; assay: MicroPET in AD animal model 5×FAD; type: in vivo; conditions: 15 month-old
Description: In vivo imaging of [^11C]MPC-6827 in amyloid overexpressing 5×FAD-AD mice (15 month-old) show 40% lower binding of radiotracer in the whole brain model in comparison to the wild type controls (FIGS. 10 and 11). The tracer binding in frontal and mid brain regions show significant lower binding than whole brain in comparison to wild type mice.

[8] = test system: tau-overexpressing rTg4510 mice; assay: MicroPET in AD animal model rTg4510; type: in vivo; conditions: 9-month old
Description: MicroPET studies with 9-month old, tau-overexpressing rTg4510 mice (Alzheimer disease-tau pathology) show ˜35% lower binding of [^11C]MPC-6827 brain activity in comparison to the control mice (FIGS. 12 and 13).

**Q.** Which Ki (5-HT1A) does the source give for `COc1ccc(N(C)c2nc(C)nc3ccccc23)cc1` [MPC-6827, N-(4-methoxyphenyl)-N,2-dimethylquinazolin-4-amine] here?
**A.** Its Ki is greater than 10 µM.

**Q.** And the Ki (5-HT1B)?
**A.** Its Ki is greater than 10 µM.

**Q.** What about the Ki (5-HT1D) of the same compound?
**A.** Its Ki is greater than 10 µM.

**Q.** And the Ki (5-HT1E)?
**A.** The Ki was greater than 10 µM.

**Q.** And the Ki (5-HT2A)?
**A.** Its Ki is greater than 10 µM.

**Q.** And the Ki (5-HT2B)?
**A.** The Ki was greater than 10 µM.

**Q.** What about the Ki (5-HT2C) of the same compound?
**A.** The Ki was greater than 10 µM.

**Q.** And the Ki (5-HT3)?
**A.** Its Ki is greater than 10 µM.

**Q.** What about the Ki (5-HT7) of the same compound?
**A.** Its Ki is greater than 10 µM.

**Q.** And the Ki (Adenosine)?
**A.** The Ki was greater than 10 µM.

**Q.** And the Ki (α1A-1C)?
**A.** The Ki was greater than 10 µM.

**Q.** What about the Ki (α2A) of the same compound?
**A.** The Ki was greater than 10 µM.

**Q.** And the Ki (α2B)?
**A.** The Ki was greater than 10 µM.

**Q.** What about the Ki (α2C) of the same compound?
**A.** Its Ki is greater than 10 µM.

**Q.** And the Ki (β1)?
**A.** The Ki was greater than 10 µM.

**Q.** What about the Ki (β2) of the same compound?
**A.** The Ki was greater than 10 µM.

**Q.** And the Ki (β3)?
**A.** Its Ki is greater than 10 µM.

**Q.** And the Ki (BZP)?
**A.** The Ki was greater than 10 µM.

**Q.** And the Ki (Ca++ channel)?
**A.** The Ki was greater than 10 µM.

**Q.** And the Ki (AMPA)?
**A.** The Ki was greater than 10 µM.

**Q.** And the Ki (NK)?
**A.** The Ki was greater than 10 µM.

**Q.** And the Ki (Sigma1)?
**A.** Its Ki is 0.426 µM.

**Q.** And the Ki (Na+ Channel)?
**A.** The Ki was greater than 10 µM.

**Q.** And the Ki (CB1)?
**A.** The Ki was greater than 10 µM.

**Q.** And the Ki (mGluR)?
**A.** The Ki was greater than 10 µM.

**Q.** And the Ki (CB2)?
**A.** The Ki was greater than 10 µM.

**Q.** What about the Ki (D1, D2) of the same compound?
**A.** The Ki was greater than 10 µM.

**Q.** And the Ki (D3)?
**A.** Its Ki is greater than 10 µM.

**Q.** And the Ki (D4)?
**A.** Its Ki is greater than 10 µM.

**Q.** And the Ki (KA)?
**A.** Its Ki is greater than 10 µM.

**Q.** What about the Ki (D5) of the same compound?
**A.** The Ki was greater than 10 µM.

**Q.** What about the Ki (EP) of the same compound?
**A.** The Ki was greater than 10 µM.

**Q.** And the Ki (GABA)?
**A.** Its Ki is greater than 10 µM.

**Q.** And the Ki (M)?
**A.** The Ki was greater than 10 µM.

**Q.** What about the Ki (H3, H4) of the same compound?
**A.** Its Ki is greater than 10 µM.

**Q.** What about the Ki (H2) of the same compound?
**A.** Its Ki is 0.155 µM.

**Q.** What about the Ki (MOR) of the same compound?
**A.** Its Ki is 6.48 µM.

**Q.** What about the Ki (NMDA) of the same compound?
**A.** Its Ki is greater than 10 µM.

**Q.** And the Ki (I)?
**A.** The Ki was greater than 10 µM.

**Q.** And the Ki (VMAT)?
**A.** Its Ki is greater than 10 µM.

**Q.** What about the Ki (NT) of the same compound?
**A.** The Ki was greater than 10 µM.

**Q.** What about the Ki (PKC) of the same compound?
**A.** Its Ki is greater than 10 µM.

**Q.** What about the Ki (V1-2) of the same compound?
**A.** The Ki was greater than 10 µM.

**Q.** What about the Ki (variety of brain targets) of the same compound?
**A.** The Ki was greater than 10 µM.

**Q.** And the “binding to a panel / variety of kinases” value (panel of kinases)?
**A.** The value was “did not show binding”.

**Q.** And the “competition at microtubule binding sites” value (microtubules (MTs))?
**A.** Its value is “compete with paclitaxel and colchicine, but not with vinblastine”.

**Q.** Which results are given for `COc1ccc(N(C)c2nc(C)nc3ccccc23)cc1` [[^11C]MPC-6827]?
**A.** logP [1]: 3.8; stable in 5% ethanol-saline formulation [2]: 4 h; BBB penetration and brain retention (brain MT [3]; biodistribution, white male mice): penetrated the BBB and was retained in the brain; specific binding in brain (brain MT [3]; mice, 30 minutes, blocking with 5 mg/kg MPC-6827): 70%; brain SUV (brain MT [3]; mice, compared with established PET tracers): higher than that of the established brain PET/periphery PET tracers; BBB penetration and retention in brain (rat brain): BBB penetration and excellent retention; brain uptake / BBB penetration (brain MT [4]; microPET, nude mice, baseline): excellent brain uptake; also recorded: penetrates the blood brain barrier (BBB) with excellent retention; blocking of brain uptake (brain MT [4]; pre-administration of 5 mg/kg MPC-6827 and 5 mg/kg HD-800 (i.v.)): substantially blocked; uptake and specific binding [5]: excellent uptake and specific binding; uptake and specific binding (glioblastoma PDX cells): excellent uptake and specific binding; uptake and specific binding [6]: excellent uptake and specific binding; binding site on microtubules (MDA-MB-231 cells): binds to taxane and colchicine binding sites of microtubules; incubation time to equilibrium binding (MDA-MB-231 cells): 60 min; specific binding (MDA-MB-231 cells; with 5 μM MPC-6827): 95%; specific binding (MDA-MB-231 cells; with 5 μM MTA HD-800): 95%; specific binding (MDA-MB-231 cells; with 5 μM colchicine): 65%; specific binding (MDA-MB-231 cells; with 5 μM docetaxel): 88%; specific binding (MDA-MB-231 cells; with 5 μM paclitaxel): 78%; lower binding of radiotracer in the whole brain vs wild type controls [7]: 40%; lower binding (brain activity) vs control mice [8]: ~35%
